Columns and labels:
Plasmodium falciparum [1] = assay: NOVARTIS: Inhibition of Plasmodium falciparum W2 (drug-resistant) proliferation in erythrocyte-based infection assay; type: functional, organism-based
[2] = NOVARTIS: Cytotoxicity against human hepatocellular carcinoma cell line (Huh7); type: toxicity, cell-based, Huh-7; details: Huh7 cells (hepatocellular carcinoma cell line)
Plasmodium falciparum [3] = assay: NOVARTIS: Inhibition of Plasmodium falciparum 3D7 (drug-susceptible) proliferation in erythrocyte-based infection assay; type: functional, organism-based; details: Plasmodium falciparum, 3D7
[4] = Plasmodium falciparum, W2, read-out: EC50

Row | Structure (SMILES) | EC50 (Plasmodium falciparum [1]; [4]) [nM] | CC50 [2] [nM] | EC50 (Plasmodium falciparum [3]) [nM] | EC50 (Plasmodium falciparum [1])
1 | CNC(=O)[C@@H]1C[C@@H](NCc2ccc(OC)cc2)CN1Cc1ccccc1 | > 1250 | > 10000 | > 1100 | –
2 | c1ccc([B-](c2ccccc2)(c2ccccc2)c2ccccc2)cc1 | 44.8 | > 100000 | 124 | –
3 | CC1CCCCN1CCCNc1ncc(C(=O)NCc2ccccc2)c(NC2CCCC2)n1 (stereo unspecified) | > 1250 | > 10000 | 943 | –
4 | COc1ccc(OC)c(-c2ccc(O)c(CN3CCC(c4ccccc4)CC3)c2)c1 | 9.12 | > 100000 | 508 | –
5 | C/C(=C\c1csc(C)n1)[C@@H]1C[C@@H]2O[C@]2(C)CCC[C@H](C)[C@H](O)[C@@H](C)C(=O)C(C)(C)[C@@H](O)CC(=O)O1 [PATUPILONE] | > 1250 | > 6250 | 4.09 | –
6 | C=CCSc1oc(-c2ccco2)nc1[P+](c1ccccc1)(c1ccccc1)c1ccccc1 | 416 | 8420 | 310 | –
7 | CCN(CC)CCN1C(=O)c2ccccc2NC1c1ccc(C)cc1 (stereo unspecified) | 1050 | > 100000 | 858 | –
8 | Cc1ccc2nc(-c3ccc(O)cc3)oc2c1 | > 635 | > 10000 | > 1250 | –
9 | CCOC(=O)c1cnc2cc(OCC(C)C)c(OCC(C)C)cc2c1O [BUQUINOLATE] | 958 | > 10000 | 649 | –
10 | CCc1nc2nc(C)cc(NCCc3cccc(C)c3)n2n1 | 453 | > 100000 | 334 | –
11 | O=C(CSc1ccc2nnc(-c3cccc(F)c3)n2n1)Nc1ccc2c(c1)OCO2 | 819 | > 100000 | 2110 | –
12 | CCn1c(-c2ccc(O)cc2)nn(CN2CCN(Cc3ccc4c(c3)OCO4)CC2)c1=S | > 1200 | > 10000 | > 1250 | –
13 | Cc1ccc2nc(Nc3ncc4c(n3)CC(C)(C)CC4=O)nc(C)c2c1 | 1250 | > 100000 | > 12500 | –
14 | CC1(C)CC(N=c2cc(-c3ccccc3)oc3ccc(Cl)cc23)CC(C)(C)N1 | 609 | 9600 | 251 | –
15 | COc1ccccc1N1CCN(C(=O)Nc2ccc3ccccc3c2)CC1 | 315 | > 10000 | > 1280 | –
16 | Cc1cc(N2CCCC2)nc2ccc(NC(=S)NCCCN3CCN(Cc4ccccc4)CC3)cc12 | 658 | 55500 | 116 | –
17 | Cc1ccc(-c2cc(C(=O)OCC(=O)c3cccc([N+](=O)[O-])c3)c3cc(C)ccc3n2)cc1 | 1090 | > 100000 | > 12500 | –
18 | CCOc1ccc(Nc2cc(=O)oc3ccccc23)cc1 | 91.9 | > 100000 | 610 | –
19 | O=C(Cc1c(F)cccc1Cl)Nc1cc(C(=O)N2CCN(Cc3ccccc3)CC2)ccc1N1CC2CC(C1)c1cccc(=O)n1C2 (stereo unspecified) | 30 | > 100000 | 67.2 | –
20 | CCCOc1ccc(C(=O)Nc2cccc(-c3nc4ncccc4o3)c2)cc1 | > 1750 | > 10000 | 415 | –
21 | Cc1ccc(NC(=O)c2nc[nH]c2C(=O)Nc2nc3ccccc3[nH]2)c(C)c1 | > 12500 | > 100000 | 7290 | –
22 | Cc1cnc(CNc2cc(-c3ccccn3)nc(-c3ccccn3)n2)nc1 | 646 | > 10000 | 465 | –
23 | C=CC[n+]1c(C=C2C=CN(C)C=C2)sc2ccccc21 | 140 | 24600 | 172 | –

Row | Structure (SMILES) | EC50 (Plasmodium falciparum [1]; [4]) [nM] | CC50 [2] [nM] | EC50 (Plasmodium falciparum [3]) [nM] | EC50 (Plasmodium falciparum [1])
24 | CCN1CC=C(c2c[nH]c3ccccc23)CC1 | 339 | > 10000 | 885 | –
25 | COc1ccccc1Cn1c(SCC(=O)Nc2cccc(C(F)(F)F)c2)nc2ccc(Br)cc2c1=O | 831 | > 100000 | 735 | –
26 | CN1C(=O)N(C)C(NNC(N)=S)C1NNC(N)=S (stereo unspecified) | 6.21 | > 100000 | 8.92 | –
27 | CCOC(=O)c1cnc2ccccc2c1Nc1ccc(C(C)=O)cc1 | 386 | > 73800 | 343 | –
28 | Cc1cccc(-n2nc3c(c2NC(=O)c2ccc4c(c2)OCO4)CS(=O)(=O)C3)c1C | > 1250 | > 10000 | 124 | –
29 | CN(C)c1nc(Cl)nc(N(C#N)CCOc2ccccc2)n1 | > 1250 | > 10000 | > 703 | –
30 | CCN(CC)CCNc1nc(/C=C/c2ccc(Cl)cc2)nc2cc3ccccc3cc12 | 90.1 | 5930 | 124 | –
31 | COc1cccc2cc(-c3csc(NC(=O)CCC(=O)NC4CCCC4)n3)c(=O)oc12 | > 1070 | > 10000 | > 1250 | –
32 | COc1ccc(C=NN=C2NC(=O)C(CC(=O)Nc3ccccc3)S2)cc1OC (stereo unspecified) | 857 | > 100000 | 482 | –
33 | O=C(Nn1c(SCc2cc(=O)n3ccccc3n2)nc2ccsc2c1=O)c1cccc(Br)c1 | > 695 | > 10000 | > 928 | –
34 | COc1ccc(-c2csc(Nc3ccc(O)cc3)n2)cc1OC | 3210 | > 100000 | 2960 | –
35 | CN1CCC(N[C@@H]2C[C@@H](C(=O)N3CCN(c4cccc(C(F)(F)F)c4)CC3)N(Cc3ccccc3Cl)C2)CC1 | > 1170 | > 10000 | > 1250 | –
36 | CCCC(=O)O[C@]1(C(=O)CCl)[C@@H](C)CC2C3CCC4=CC(=O)C=C[C@]4(C)[C@@]3(F)C(=O)C[C@@]21C (stereo partly specified) | 283 | > 10000 | 1680 | –
37 | COc1ccc(-c2ccc3c(N)c(C(=O)NCCc4ccccc4)sc3n2)cc1OC | 4970 | > 100000 | > 10800 | –
38 | CN1CCN(Cc2c(O)ccc3c(=O)c(Oc4ccc(C(C)(C)C)cc4)c(C(F)(F)F)oc23)CC1 | 547 | > 100000 | 1800 | –
39 | CN(C)C(=O)NCCCCNc1ccnc2cc(Cl)ccc12 | 609 | > 10000 | 992 | –
40 | CCc1cc(C(=O)N2CCC[C@@H]3CN(C(=O)c4ccc(F)cc4)CC[C@@H]32)n(C)n1 | 4670 | > 100000 | > 12500 | –
41 | COc1ccc2c(c1)CC1c3c(cc4c(c3-2)OCO4)CCN1C (stereo unspecified) | 121 | 15600 | 38.5 | –
42 | COc1ccc(-n2c(SC)nc3sc4c(c3c2=O)CCN(Cc2ccccc2)C4)cc1 | 2550 | > 100000 | 2480 | –
43 | CCOc1ccc2c(C)nc(NC(N)=NC(C)=O)nc2c1 | > 12500 | > 100000 | 3020 | –
44 | O=C(CSc1nc(-c2ccccc2Cl)ns1)Nc1ccc2c(c1)OCCO2 | 273 | > 100000 | 593 | –
45 | CCOC(=O)c1sc2nc(N)c(C#N)c(-c3cccs3)c2c1N | – | > 100000 | 1130 | No fit
46 | CC1(C)C(=O)C2(CCCCC2)C(=O)OC1/C=C/c1ccccc1 (stereo unspecified) | 12.3 | > 10000 | > 1250 | –

Row | Structure (SMILES) | EC50 (Plasmodium falciparum [1]; [4]) [nM] | CC50 [2] [nM] | EC50 (Plasmodium falciparum [3]) [nM] | EC50 (Plasmodium falciparum [1])
47 | O=C(NCCCN1CCCC1=O)c1ccc2nc(N3CCOCC3)sc2c1 | 4690 | 26800 | 7240 | –
48 | CC(=O)N(C1=C(N2CCOCC2)C(=O)c2ccccc2C1=O)c1ccc(Cl)c(Cl)c1 | 191 | 12200 | 220 | –
49 | CC(C)c1nc(N2CCN(C(=S)NCc3ccccc3)CC2)c(C#N)c2c1COC(C)(C)C2 | 112 | > 100000 | 183 | –
50 | O=C1c2cccc3c(C4=NN(c5ccccc5)C(c5ccc(Cl)cc5)C4)ccc(c23)C(=O)N1c1ccccc1 (stereo unspecified) | 407 | > 10000 | > 1250 | –
51 | O=[N+]([O-])c1cccc(CNc2ccc(F)c(Cl)c2)c1 | 8050 | > 95600 | > 12500 | –
52 | COC(=O)c1cccc(NC(=O)/C(=C\c2cccc([N+](=O)[O-])c2)NC(=O)c2ccccc2OC)c1 | > 814 | > 10000 | > 1670 | –
53 | COc1ccc(NC2=C(c3ccc(C(F)(F)F)cc3)C(=O)c3ccccc32)cc1 | 772 | > 100000 | 339 | –
54 | O=C(Nc1ccc(Cl)c(Cl)c1)Nc1cc(C(=O)NCCCN2CCCCCC2)ccc1Cl | 1420 | > 43000 | 791 | –
55 | COc1ccc(S(=O)(=O)N=C2C=C(Nc3ccc(O)cc3)C(=O)c3ccccc32)cc1 | 109 | 2450 | 185 | –
56 | CCOC(=O)CCC(=O)Oc1cc(C(C)(C)C)nn1-c1ccc(Cl)c(Cl)c1 | 203 | > 11100 | > 1230 | –
57 | Cc1cc(C)nc(SCc2cc(=O)c(OC(=O)c3cccc([N+](=O)[O-])c3C)co2)n1 | > 7470 | > 100000 | > 12500 | –
58 | CC(=O)c1cccc(NC(=O)NC2CC3CCCC(C2)N3CCc2ccccc2)c1 (stereo unspecified) | 12.6 | > 10000 | 17.3 | –
59 | CCOC(=O)c1ccc(N2C(=O)c3[nH]nc(C)c3C2c2ccccc2OC)cc1 (stereo unspecified) | > 655 | > 10000 | 610 | –
60 | O=C(Nc1ccc(C(=O)Nc2ccc(C3=NCCCN3)cc2)cc1)Nc1ccc(C2=NCCCN2)cc1 | 20.4 | > 7280 | 34.4 | –
61 | CCC(C)CNC(=O)c1ccc(OC2CCN(CC3CCCCC3)CC2)c(Cl)c1 (stereo unspecified) | 48.4 | > 13200 | 78.2 | –
62 | Clc1cccc(-c2cn3ccnc3c(N3CCN(c4ccncc4)CC3)n2)c1 | > 52.6 | > 10000 | > 1250 | –
63 | Cc1nc(-c2ccc[n+](C)c2)sc1C(=O)/C=C/c1ccc(Cl)cc1 | 200 | > 10000 | 283 | –
64 | CN(C)c1ccc(/C=C2\C(=O)NC(=O)N(Cc3ccccc3Cl)C2=O)cc1 | 1110 | > 10000 | > 1250 | –
65 | Cn1c(SCC(=O)Nc2cccc(F)c2)nc2c(c1=O)SCC2 | 2150 | > 100000 | 2380 | –
66 | CCc1cc2c(cc1-c1csc(NC(=N)N)n1)C(C)(C)CCC2(C)C | 961 | 24600 | 733 | –
67 | CCOc1cccc2c1N(C(=O)c1ccc(C)cc1)C(C)(C)C1=C2C2(SC(C(=O)OC)=C(C(=O)OC)S2)C(C(=O)OC)=C(C(=O)OC)S1 | 663 | > 10000 | 1080 | –
